PubChem BioAssay (NCI)
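Results reflect a 48-hour exposure of cells in 96-well plates to compound at five concentrations. Definition used: TGI = concentration required for complete inhibition of growth.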

Tests used:
Experiment in all cases: NCI tumour cell line growth inhibition, 48 h
[1] = system: MDA-MB-231 breast
[2] = system: SW-620 colon
[3] = system: OVCAR-5 ovarian
[4] = system: NCI-H23 lung
[5] = system: SN12C renal
[6] = system: MDA-N
[7] = system: ACHN renal
[8] = system: MOLT-4 leukemia
[9] = system: SK-OV-3 ovarian
[10] = system: T-47D breast
[11] = system: HOP-62 NSCLC
[12] = system: UACC-257 melanoma
[13] = system: MCF7 breast
[14] = system: NCI-H522 lung
[15] = system: UO-31 renal
[16] = system: U251 CNS
[17] = system: HT29 colon
[18] = system: MALME-3M melanoma
[19] = system: SF-539 CNS
[20] = system: A498 renal

| Compound | TGI [1] [µM] | TGI [2] [µM] | TGI [3] [µM] | TGI [4] [µM] | TGI [5] [µM] | TGI [6] [µM] | TGI [7] [µM] | TGI [8] [µM] | TGI [9] [µM] | TGI [10] [µM] | TGI [11] [µM] | TGI [12] [µM] | TGI [13] [µM] | TGI [14] [µM] | TGI [15] [µM] | TGI [16] [µM] | TGI [17] [µM] | TGI [18] [µM] | TGI [19] [µM] | TGI [20] [µM] |
| --- | --- | --- | --- | --- | --- | --- | --- | --- | --- | --- | --- | --- | --- | --- | --- | --- | --- | --- | --- | --- |
| COC(=O)[C@H](Cc1ccccc1)NP(=O)(OCCC#N)OCC1OC(n2cc(C)c(=O)[nH]c2=O)CC1N=[N+]=[N-] (stereo not given in full) | > 100 | > 100 | > 100 | > 100 | > 100 | > 100 | > 100 | > 100 | > 100 | > 100 | > 100 | > 100 | > 100 | > 100 | > 100 | > 100 | > 100 | > 100 |  |  |
| COC(=O)C1=C(C)C(=O)[C@]23C(CCCC[C@H]12)C(=O)[C@H](C(=O)OC)C3C (stereo not given in full) | > 100 | > 100 | > 100 | > 100 | > 100 | > 100 | > 100 | > 100 | > 100 | > 100 | > 100 | > 100 | > 100 | > 100 | > 100 | > 100 | > 100 | > 100 | > 100 |  |
| CCOC(=O)c1cc(=O)c2ccnc3c2n1CCS3 | > 100 | > 100 | > 100 | > 100 | > 100 | > 100 | > 100 | > 100 | > 100 | > 100 | > 100 | > 100 | > 100 | 74.4 | > 100 | > 100 | > 100 |  | > 100 | > 100 |
| Cc1c(C)c(C)c(-n2c(=O)n(C)c(=O)n2-n2c(=O)n(C)c(=O)n2-c2c(C)c(C)c(C)c(C)c2C)c(C)c1C | > 100 | > 100 | > 100 |  | > 100 | > 100 |  | > 100 | > 100 | > 100 |  | > 100 | > 100 | > 100 | > 100 | > 100 | > 100 | > 100 | > 100 | > 100 |
| O=C1N=C(SC(SC2=NC(=O)C3(NN2)c2ccccc2-c2ccccc23)=C(SC2=NC(=O)C3(NN2)c2ccccc2-c2ccccc23)SC2=NC(=O)C3(NN2)c2ccccc2-c2ccccc23)NNC12c1ccccc1-c1ccccc12 | > 10 | > 10 |  | > 10 | > 10 | > 10 | 9.09 | 2.95 | > 10 | > 10 | > 10 | > 10 | > 10 | > 10 | > 10 |  | > 10 | > 10 | > 10 |  |
| CN(C)CCCNC(=O)c1c(O)c2ccccc2[nH]c1=O | > 100 | > 100 | > 100 | > 100 | > 100 | > 100 | > 100 | > 100 | > 100 | > 100 | > 100 | > 100 | > 100 | > 100 | 58.6 |  | > 100 | > 100 | > 100 | > 100 |
| CC(=O)OCCCC(NC(=O)OC(C)(C)C)C(=O)NC(CCCOC(C)=O)C(=O)NC(Cc1ccc([N+](=O)[O-])cc1)C(=O)NCC(=O)OCc1ccccc1 (stereo not given) | 27.3 | 31.1 | 31.4 | 27.3 | 31.6 | 28.6 | 31.5 | > 100 | 57.6 | 33.5 | 34.8 | 28.6 | 32.2 | 32.3 | 30 | 32.8 | 31.9 | 34.4 | 28.9 |  |
| O=NN1C(c2ccccc2)CC(=NO)CC1c1ccccc1 (stereo not given) | > 100 | > 100 |  | > 100 | > 100 | > 100 | > 100 | > 100 | > 100 | > 100 | > 100 | > 100 | > 100 | > 100 | > 100 | > 100 | > 100 | > 100 | > 100 |  |
| CC1=NN(c2cccc(Cl)c2)C(=N/c2nc3ccccc3s2)/C1=C\c1ccc(Cl)cc1 | 49.2 | 42.3 | 40.4 | 39.3 |  | 56.1 | 58.9 | 73.7 | 95.3 | > 100 | 54.5 | 51.2 | 65.3 | 35.7 | 46.3 | 28.7 | 34 |  | 36.4 | 43.9 |
| CN(C)c1ccc(/C=C/C(=O)CC(=O)/C=C/c2ccc(N(C)C)cc2)cc1 | > 100 | > 100 | > 100 |  | > 100 | > 100 | > 100 | > 100 | > 100 | > 100 | > 100 |  | > 100 | > 100 | > 100 | > 100 | > 100 | > 100 | > 100 |  |
| Cc1ccc([N+](=O)[O-])cc1S(=O)(=O)Nc1ccc(C2=NOC(c3ccco3)C2)cc1 (stereo not given) | 33.1 | 58.9 | 52.2 | 37.4 | 52.6 | 31.5 | 49 | 46.6 | 97.4 | 89.4 | 30.8 | 39.1 | 35.5 | 32.7 | 32.8 |  | 56 | 53.5 | 68.3 | 34.6 |
| COc1c2cc(C(C)(C)C)cc1Cc1cccc(c1OCc1cccc([N+](=O)[O-])c1)Cc1cc(C(C)(C)C)cc(c1OC)Cc1cccc(c1OCc1cccc([N+](=O)[O-])c1)Cc1cc(C(C)(C)C)cc(c1OC)Cc1cccc(c1OCc1cccc([N+](=O)[O-])c1)C2 | > 50 | > 50 | > 50 | > 50 | > 50 | > 50 | > 50 | > 50 |  | > 50 | > 50 | > 50 | > 50 | > 50 | > 50 | > 50 | > 50 | > 50 | > 50 | > 50 |
| O=[N+]([O-])C(=C(Nc1ccccc1)Nc1ccccc1)/C(Cl)=C(\Cl)[N+](=O)[O-] | 10.8 | 5.6 | 22.7 | 11.2 | 7.77 | 10.5 | 7.12 | 17.7 | > 100 | 7.43 | 26.4 | 19.7 | 20.3 |  | 8.21 | 18.1 | 8.73 | 14.2 | 4.15 | 46.2 |
| NC(=O)Nc1ccc(S(=O)(=O)Nc2ccc(S(N)(=O)=O)cc2)cc1 | > 100 | > 100 | > 100 | > 100 | > 100 | > 100 | > 100 |  |  | > 100 | > 100 | > 100 | > 100 | > 100 | > 100 | > 100 | > 100 | > 100 |  | > 100 |
| Fc1ccc(Oc2nc3ccc(C(F)(F)F)cc3nc2-c2ccccc2)cc1 | > 100 | > 10 | > 100 | > 100 | > 100 | > 100 | > 100 | > 100 | > 100 | > 100 | > 100 | > 100 | > 100 | > 100 | > 100 |  | > 100 | > 100 | > 100 |  |
| CC1(C)CC(C2=NCCO2)CC(C)(C)N1 | > 100 |  | > 100 | > 100 | > 100 | > 100 | > 100 | > 100 | > 100 | > 100 | > 100 | > 100 | 61.1 |  | > 100 | > 100 | > 100 | > 100 | > 100 | > 100 |
| COc1ccc(/C=C2\NC(=S)N(/C=C3\C(=O)Oc4ccccc4C3=O)C2=O)cc1OC | > 100 | > 100 | > 100 | > 100 | > 100 | > 100 | > 100 | > 100 | > 100 | > 100 | > 100 | > 100 | > 100 | > 100 | > 100 | > 100 | > 100 |  | > 100 | > 100 |
| CC12O[C@]3([C@H](C(=O)N4CCOC43C)[C@H]1Cl)[C@H]1O[C@H]12 (stereo not given in full) | > 100 | > 100 | > 100 |  | > 100 | > 100 | > 100 | > 100 | > 100 | > 100 | > 100 | > 100 | > 100 | > 100 | > 100 | > 100 | > 100 |  | > 100 | > 100 |
| Cn1c(=O)c2c(nc3n(CCCCl)c(=O)ccn23)n(C)c1=O | > 100 | > 100 | > 100 | > 100 | > 100 | > 100 | > 100 | > 100 | > 100 | > 100 | > 100 | > 100 | > 100 | > 100 | > 100 | > 100 | > 100 |  | > 100 | > 100 |
| O=c1c2ccccc2nc(-c2cc3c(cc2Cl)Sc2nccn2S3(=O)=O)n1-c1ccccc1 | 38.2 | 47.5 | > 100 | > 100 | > 100 | 33.8 | > 100 | > 100 | > 100 | 23.8 | 35.7 | 34.2 | 27.5 | > 100 | 31.7 | 30.5 | > 100 | > 100 | 40.5 |  |
| OCCOCCN1CCN(CCCN2c3ccccc3Sc3ccc(C(F)(F)F)cc32)CC1 | 24 | 29.6 | 27.3 | 31 | 26.7 | 26.1 | 31.8 | 29.8 | 33.7 | 2.48 | 33.2 | 18.3 | 28.3 | 28.2 | 20.6 | 24.7 | 7.65 |  | 25.9 | 22.6 |
| Cc1ccc2nc(Cl)c(/C=N/N3C(=O)/C(=C/c4cccc([N+](=O)[O-])c4)N=C3c3ccccc3)cc2c1 | > 100 | > 100 | > 100 |  | > 100 | 42.2 | > 100 | 80.5 | > 100 | > 100 | > 100 | > 100 | 93.7 |  | > 100 | > 100 | > 100 |  | > 100 | 52.3 |
| Cc1ccc2nc3c(=O)[nH]c(=O)nc-3n(C)c2c1C | > 100 | > 100 | > 100 | > 100 | > 100 | > 100 | > 100 | > 100 | > 100 | > 100 | > 100 | > 100 | > 100 | > 100 | > 100 | > 100 | > 100 | > 100 | > 100 |  |
| C=C(CCOC)CCC1CCCCC(=C)[C@H]1OC(C)=O (stereo not given in full) | > 100 | > 100 | > 100 | > 100 | > 100 | > 100 | > 100 | > 100 | > 100 | > 100 | > 100 | > 100 | > 100 | > 100 | > 100 | > 100 | > 100 |  | > 100 | > 100 |
